Consider four compounds from US8772488B2 (Shanghai Institute of Pharmaceutical Industry, priority 2009, dated 2014).

The nature of data set [1]: Solubility of acetic acid solvate (0.1N hydrogen chloride aqueous solution). It is filed as physicochemical. The note with it: for Solubility (0.1N hydrogen chloride aqueous solution), descriptive term: Chinese Pharmacopoeia 2005 General Notices. The text has this:
Sample Sources: the Same as Example 10
Experimental method: refer to Pharmacopoeia of the People's Republic of China. 2005 ed. Part 2. General Notices.

The test system of the next data set is platelet aggregation. To be noted: cited from earlier work.
Data set [2] can be described thus: Influence factor test (stability under heat, light, high humidity; HPLC purity). It is filed as physicochemical. The method, then:
Experimental method: refer to Pharmacopoeia of the People's Republic of China. 2005 ed. Part 2. Appendix XIX C
HPLC conditions: instrument: Agilent 1100
Chromatographic column: Phenomenex Hyperclone 5μ BDS C18
Mobile phase: acetonitrile: KH2PO4 (10 mM)=70:30
Column temperature: 40° C.

The conditions of data set [3]: cited from earlier work.

Take `CC(=O)Oc1cc2c(s1)CCN(C(C(=O)C1CC1)c1ccccc1F)C2` (stereo not drawn) [Example X1]: the “Solubility (0.1N hydrogen chloride aqueous solution), descriptive term” value (from here on “Solubility … descriptive term”) in data set [1] is given as “slightly soluble”. The “Inhibition of platelet aggregation” value with platelet aggregation was “good activity”. Further, the “Purity (HPLC area normalization) tR 6.2” value turned out to be 99.08 in data set [2] (0 day); 98.89 in data set [2] (60° C. for 5 days); 98.29 in data set [2] (60° C. for 10 days); 98.39 in data set [2] (RH 92.5% 5 days); 98.20 in data set [2] (RH 92.5% 10 days); 98.49 in data set [2] (light for 5 days). Further, the “Purity (HPLC area normalization) tR 6.2” value in data set [2] (light for 10 days) amounted to 98.20.

`Br.CC(=O)Oc1cc2c(s1)CCN(C(C(=O)C1CC1)c1ccccc1F)C2` (stereo not drawn) [Example X2]: the “Water solubility compared to hydrochloride” value in data set [3] was “improved”. Further, in data set [1], the “Solubility … descriptive term” value is “degraded”. Besides, the “Purity (HPLC area normalization) tR 6.2” value is on record as 99.83 in data set [2] (0 day); 99.39 in data set [2] (60° C. for 5 days); 99.01 in data set [2] (60° C. for 10 days); 96.62 in data set [2] (RH 92.5% 5 days); 96.12 in data set [2] (RH 92.5% 10 days); 99.40 in data set [2] (light for 5 days). Further, the “Purity (HPLC area normalization) tR 6.2” value in data set [2] (light for 10 days) came out at 98.83.

`CC(=O)Oc1cc2c(s1)CCN(C(C(=O)C1CC1)c1ccccc1F)C2` (stereo not drawn) [Example X3, 2-acetoxy-5-(α-cyclopropylcarbonyl-2fluorobenzyl)-4,5,6,7-tetrahydrothieno[3,2-c]pyridine hydrobromate]: the “Solubility compared with prasugrel hydrobromate and hydrochlorate” value in data set [1] was “better solubility”. Further, in data set [1], the “Solubility … descriptive term” value is given as “easily soluble”. The “Purity (HPLC area normalization) tR 6.2” value amounted to 99.84 in data set [2] (0 day); 99.72 in data set [2] (60° C. for 5 days); 99.46 in data set [2] (60° C. for 10 days); 99.65 in data set [2] (RH 92.5% 5 days); 99.50 in data set [2] (RH 92.5% 10 days); 99.56 in data set [2] (light for 5 days). In data set [2] (light for 10 days), the “Purity (HPLC area normalization) tR 6.2” value stood at 99.57. In data set [2] (stability test), the “Stability of crystal A compared with crystal B” value is “better than crystal B”. The “Stability compared with X1 and X2” value in data set [2] (under all the conditions of light, 60° C., and RH 92.5%) is on record as “more stable”.

Consider maleate, for which, in the data set with platelet aggregation, the “Inhibition of platelet aggregation” value is on record as “good activity”.
